Results: patent US20040063731A1, “Pharmaceutical formulation comprising pyrazolo[4,3-d]pyrimidines and endothelin receptor antagonists or thienopyrimidines and endothelin receptor antagonists” (priority 2001, published 2004)
Structures can show the parent of a compound that is named as a salt.

| SMILES | melting point |
| --- | --- |
| COc1ccc(CNc2nc(CCC(=O)O)nc3sc4c(c23)CCCC4)cc1Cl (as salt: salt) [Example 2, 3-[4-(3-chloro-4-methoxybenzylamino)-5,6,7,8-tetrahydro-[1]-benzothieno[2,3-d)pyrimidin-2-yl)propionic acid] | 135 °C |
| CCCc1nn(C)c2c(NCc3ccc(OC)c(Cl)c3)nc(CCC(=O)O)nc12 [Example 2, 3-[7-(3-chloro-4-methoxybenzylamino)-1-methyl-3-propyl-1H-pyrazolo-[4,3-d]pyrimidin-5-yl]propionic acid] | 178 °C |

Further lines, results first:

| melting point | SMILES |
| --- | --- |
| 189 to 190 °C | COc1ccc(CNc2nc(-c3ccc(C(=O)O)cc3)nc3sc4ccccc4c23)cc1Cl (as salt: salt) [Example 3, 4-[4-(3-chloro-4-methoxybenzylamino)-[1]-benzothieno[2,3-d]-pyrimidin-2-yl]benzoic acid] |
| 139 °C | CCCc1nn(C)c2c(NCc3ccc(OC)c(Cl)c3)nc(-c3ccc(C(=O)O)cc3)nc12 (as salt: salt) [Example 3, 4-[7-(3-chloro-4-methoxybenzylamino]-methyl-3-propyl-1H-pyrazolo-[4,3-d]pyrimidin-5-yl]benzoic acid] |
| 229 °C | COc1ccc(CNc2nc(CCC(=O)O)nc3sc4c(c23)CCCC4)cc1Cl [Example 2, 3-[4-(3-chloro-4-methoxybenzylamino)-5,6,7,8-tetrahydro-[1]-benzothieno[2,3-d)pyrimidin-2-yl)propionic acid] |
